# How the values were obtained:
# Assay type in all cases: cell-based
# elastin = test: Extracellular matrix expression by immunofluorescence (confocal, Image J): elastin; conditions: human dermal fibroblasts; peptide at 10 µM, 50 µM or 100 µM, 48 hours; green fluorescence intensity; maximum increase (FIG. 2)
# Method: (§1) To confirm the effect of a peptide consisting of the amino acid sequence of SEQ ID NO: 1 on increasing the expression of the dermal extracellular matrix. Specifically, human dermal fibroblasts were seeded in a 6-well plate at a density of 3x10^5 cells/well and cultured for 24 hours. After replacing with serum-free mesenchymal stem cell medium, the cells were cultured for 24 hours. A peptide was treated at concentrations of 10 µM, 50 µM, or 100 µM, respectively, and incubated at 37 °C for 48 hours. Human recombinant FGF protein was treated at 100 nM. After the culture was completed, the culture supernatant was removed and fixed with 4 % paraformaldehyde for 30 minutes. After washing with PBS, the cells were reacted with 0.5 % Triton X-100 for 15 minutes. After reacting with 3 % BSA for 1 hour, primary antibodies against collagen type 1, fibronectin, and elastin were diluted 1:100 and reacted overnight at 4 °C. Secondary antibody-FITC was diluted 1:500 and reacted at room temperature for 2 hours, followed by DAPI staining and mounting. The expression images of each marker were observed using a confocal microscope (Leica, Germany). Green fluorescence intensity was measured using Image J.
# (§2) The results are illustrated in FIG. 2. […]
# collagen type 1 = test: Extracellular matrix expression by immunofluorescence (confocal, Image J): collagen type 1; conditions: human dermal fibroblasts; peptide at 10 µM, 50 µM or 100 µM, 48 hours; green fluorescence intensity; maximum increase (FIG. 2)
# Method: as §1, §2
# fibronectin = test: Extracellular matrix expression by immunofluorescence (confocal, Image J): fibronectin; conditions: human dermal fibroblasts; peptide at 10 µM, 50 µM or 100 µM, 48 hours; green fluorescence intensity; maximum increase (FIG. 2)
# Method: as §1, §2
# human dermal fibroblasts = test: Fibroblast proliferation effect (SRB staining, absorbance at 560 nm); conditions: peptide at 10 µM, 50 µM or 100 µM, 72 hours, 37 °C, concentration-dependent, maximum increase (FIG. 1)
# Method: To confirm the effect of a peptide consisting of the amino acid sequence of SEQ ID NO: 1 on promoting the proliferation of Fibroblasts. Specifically, human dermal fibroblasts were seeded in a 96-well plate at a density of 5x10^3 cells/well and cultured for 24 hours. After replacing with serum-free mesenchymal stem cell medium, the cells were cultured for 24 hours. The above peptide was treated at concentrations of 10 µM, 50 µM, or 100 µM, respectively, and incubated at 37 °C for 72 hours. As a positive control group, 50 nM of human recombinant FGF protein was treated. After completion of culturing, the culture supernatant was removed and the cells were fixed using ethanol. After washing with PBS, staining was performed by treating with SRB solution. After washing with 1 % acetic acid, cells were observed under a microscope and destained by treating with 20 mM tris solution. Cell viability was measured by measuring absorbance at a wavelength of 560 nm using a spectrophotometer (SpectraMax iD3, Molecular Devices (USA, CA)).
# The results are illustrated in FIG. 1. From the results of FIG. 1, it may be confirmed that proliferation was induced in a concentration-dependent manner in the peptide treatment group, increasing by up to 1.62 times.
sequence,measurement,setting,value
AERRREKCRC [peptide],elastin expression increase compared to the control group,elastin,up to 2 times
same,collagen type 1 expression increase compared to the control group,collagen type 1,up to 1.32 times
same,fibronectin expression increase compared to the control group,fibronectin,up to 1.38 times
same,proliferation increase,human dermal fibroblasts,up to 1.62 times
